Data from patent US7037495B1, “Antimicrobial compositions” (priority 1999, dated 2006).

What was measured:
Type in all cases: cell-based, Escherichia coli
[1] = system: TOP10 E. coli + bcrA; experiment: MIC determination by microtitre broth dilution method, TOP10 E. coli + bcrA; settings: for Growth of TOP10 E. coli + bcrA: 24 h at 37° C.
Protocol: (§1) MIC Determination by Microtitre Broth Dilution Method
(§2) TOP10 E. coli with or without (O) bcrA were grown to a concentration of 2×10^4 cfu/ml (bcrA+was grown in the presence of 100 μg/ml ampicillin to select for the pBAD-TOPO vector) in RPMI medium (Sigma) in the presence of 0.002% L-arabinose, as the inducer of the bcrA gene. 100 μl TOP10 E. coli±bcrA was dispensed into 96 well microtitre plate (Sigma) to give a final concentration of 1×10^4 cfu/ml. […] The plates were incubated for 24 h at 37° C. and scored by growth or no growth.

[2] = system: TOP10 E. coli − bcrA; experiment: MIC determination by microtitre broth dilution method, TOP10 E. coli − bcrA; settings: 24 h at 37° C.
Protocol: as §1, §2

[3] = system: TOP10 E. coli + bcrA; experiment: Phage clone activity against resistance of TOP10 E. coli + bcrA to nalidixic acid; settings: for Nalidixic acid MIC: in the presence of phage (neat and diluted 1:10), TOP10 E. coli + bcrA, 24 h at 37° C.
Protocol: TOP10 E. coli+bcrA were grown to a concentration of 2×10^4 cfu/ml in RPMI medium (Sigma) containing 100 μg/ml ampicillin (to select for the pBAD-TOPO vector) in the presence of 0.002% L-arabinose, as the inducer of the bcrA gene. 100 μl TOP10 E. coli+bcrA, at a final concentration of 1×10^4 cfu/ml, were dispensed into 96 well microtitre plate (Sigma) in the presence of neat phage and phage diluted 1:10 (see table below). Serial doubling dilutions nalidixic acid was added to each well, with the concentration ranging from 128 to 0.25 μg/ml. A control with just the media was set up. The plates were incubated for 24 h at 37° C. Six phage clones were tested.

[4] = TOP10 E. coli + bcrA versus − bcrA

| Molecule | Growth of TOP10 E. coli + bcrA ([1]; antibiotic 0.125 μg/ml) | Growth of TOP10 E. coli + bcrA ([1]; antibiotic 0.25 μg/ml) | Growth of TOP10 E. coli + bcrA ([1]; antibiotic 0.5 μg/ml) | Growth of TOP10 E. coli + bcrA ([1]; antibiotic 1 μg/ml) | Growth of TOP10 E. coli + bcrA ([1]; antibiotic 2 μg/ml) | Growth of TOP10 E. coli + bcrA ([1]; antibiotic 4 μg/ml) | Growth of TOP10 E. coli + bcrA ([1]; antibiotic 8 μg/ml) | Growth of TOP10 E. coli + bcrA ([1]; antibiotic 16 μg/ml) | Growth of TOP10 E. coli + bcrA ([1]; antibiotic 32 μg/ml) | Growth of TOP10 E. coli + bcrA ([1]; antibiotic 64 μg/ml) | Growth of TOP10 E. coli + bcrA ([1]; antibiotic 128 μg/ml) | Growth of TOP10 E. coli − bcrA ([2]; antibiotic 0.125 μg/ml) | Growth of TOP10 E. coli − bcrA ([2]; antibiotic 0.25 μg/ml) | Growth of TOP10 E. coli − bcrA ([2]; antibiotic 0.5 μg/ml) | Growth of TOP10 E. coli − bcrA ([2]; antibiotic 1 μg/ml) | Growth of TOP10 E. coli − bcrA ([2]; antibiotic 2 μg/ml) | Growth of TOP10 E. coli − bcrA ([2]; antibiotic 4 μg/ml) | Growth of TOP10 E. coli − bcrA ([2]; antibiotic 8 μg/ml) | Growth of TOP10 E. coli − bcrA ([2]; antibiotic 16 μg/ml) | Growth of TOP10 E. coli − bcrA ([2]; antibiotic 32 μg/ml) | also measured |
| --- | --- | --- | --- | --- | --- | --- | --- | --- | --- | --- | --- | --- | --- | --- | --- | --- | --- | --- | --- | --- | --- |
| N=C(NCCCCCCNC(=N)NC(=N)Nc1ccc(Cl)cc1)NC(=N)Nc1ccc(Cl)cc1 [Chlorohexadine] | + | + | + | + | + | + | + | − | − | − | − | + | + | + | + | + | + | + | − | − | resistance conferred by the bcrA gene in TOP10 E. coli [1, 4]: No resistance; Growth of TOP10 E. coli − bcrA ([2]; antibiotic 64 μg/ml): −; Growth of TOP10 E. coli − bcrA ([2]; antibiotic 128 μg/ml): − |
| O=C(O)c1cn(C2CC2)c2cc(N3CCNCC3)c(F)cc2c1=O [Ciprofloxacin] | + | − | − | − | − | − | − | − | − | − | − | + | − | − | − | − | − | − | − | − | resistance conferred by the bcrA gene in TOP10 E. coli [1, 4]: No resistance; Growth of TOP10 E. coli − bcrA ([2]; antibiotic 64 μg/ml): −; Growth of TOP10 E. coli − bcrA ([2]; antibiotic 128 μg/ml): − |
| CCn1cc(C(=O)O)c(=O)c2ccc(C)nc21 [Nalidixic Acid] | + | + | + | + | + | + | + | − | − | − | − | + | + | + | + | + | − | − | − | − | difference in MIC in TOP10 E. coli ± bcrA ([1]; TOP10 E. coli + bcrA versus − bcrA, doubling dilutions): three well difference; Growth of TOP10 E. coli − bcrA ([2]; antibiotic 64 μg/ml): −; Growth of TOP10 E. coli − bcrA ([2]; antibiotic 128 μg/ml): −; MIC ([3]; Escherichia coli, 24 h, read-out: Nalidixic acid MIC): 16 µg/mL |
| CN(C)[C@@H]1C(O)=C(C(N)=O)C(=O)[C@@]2(O)C(O)=C3C(=O)c4c(O)cccc4[C@@](C)(O)[C@H]3C[C@@H]12 [Tetracycline] | + | + | + | + | + | + | − | − | − | − | − | + | + | + | + | + | − | − | − | − | Growth of TOP10 E. coli − bcrA ([2]; antibiotic 64 μg/ml): −; Growth of TOP10 E. coli − bcrA ([2]; antibiotic 128 μg/ml): − |
| AIISFGFMAFFGSVV [Peptide 1] |  |  |  |  |  |  |  |  |  |  |  |  |  |  |  |  |  |  |  |  | Nalidixic acid MIC [3]: 2 µg/mL |
| HRLDRMVASFAFHR [Peptide 3] |  |  |  |  |  |  |  |  |  |  |  |  |  |  |  |  |  |  |  |  | Nalidixic acid MIC [3]: 8 µg/mL |
| SVVIFPLWQTVMGYT [Peptide 2] |  |  |  |  |  |  |  |  |  |  |  |  |  |  |  |  |  |  |  |  | Nalidixic acid MIC [3]: 16 µg/mL |
